In PMC5956890 (Journal of medicinal chemistry, 2017):
Entries after “also recorded” stand apart in the source; their conditions may differ.

Key:
hA1AR = conditions: cited from earlier work
hA2AAR = conditions: cited from earlier work
PPARδ [1] = target: T1, PPARδ (Homo sapiens, UniProt Q03181); assay: TR-FRET competitive binding assay PPARδ; conditions: concentration-response
T1 sequence (Q03181 1-441): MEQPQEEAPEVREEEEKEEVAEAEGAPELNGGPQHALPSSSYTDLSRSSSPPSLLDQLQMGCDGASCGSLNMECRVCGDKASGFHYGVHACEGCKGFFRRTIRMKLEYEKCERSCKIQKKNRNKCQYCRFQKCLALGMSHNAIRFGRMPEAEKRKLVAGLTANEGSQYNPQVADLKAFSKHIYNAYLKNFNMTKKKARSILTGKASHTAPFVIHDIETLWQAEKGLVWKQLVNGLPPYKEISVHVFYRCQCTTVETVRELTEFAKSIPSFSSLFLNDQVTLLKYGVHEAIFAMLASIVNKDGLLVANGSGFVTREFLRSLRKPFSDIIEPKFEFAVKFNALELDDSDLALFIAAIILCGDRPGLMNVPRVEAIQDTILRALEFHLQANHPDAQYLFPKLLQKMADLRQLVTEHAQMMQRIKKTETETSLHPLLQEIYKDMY

CDK5/p35 = CDK5/p35 (Homo sapiens, UniProt Q00535); assay: KinaseProfiler kinase assay CDK5/p35; format: biochemical; conditions: up to 20 µM, Km ATP
Sequence of CDK5/p35 (Q00535 whole entry): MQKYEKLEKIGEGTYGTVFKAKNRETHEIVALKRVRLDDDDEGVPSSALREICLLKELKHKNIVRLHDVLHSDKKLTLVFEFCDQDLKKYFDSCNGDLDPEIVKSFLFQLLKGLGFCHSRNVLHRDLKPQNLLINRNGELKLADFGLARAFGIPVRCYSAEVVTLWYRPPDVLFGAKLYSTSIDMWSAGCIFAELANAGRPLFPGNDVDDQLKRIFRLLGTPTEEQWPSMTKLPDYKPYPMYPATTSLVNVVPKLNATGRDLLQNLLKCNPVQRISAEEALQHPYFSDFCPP
Sequence of CDK5/p35 (Q15078 2-307 partner limits assumed): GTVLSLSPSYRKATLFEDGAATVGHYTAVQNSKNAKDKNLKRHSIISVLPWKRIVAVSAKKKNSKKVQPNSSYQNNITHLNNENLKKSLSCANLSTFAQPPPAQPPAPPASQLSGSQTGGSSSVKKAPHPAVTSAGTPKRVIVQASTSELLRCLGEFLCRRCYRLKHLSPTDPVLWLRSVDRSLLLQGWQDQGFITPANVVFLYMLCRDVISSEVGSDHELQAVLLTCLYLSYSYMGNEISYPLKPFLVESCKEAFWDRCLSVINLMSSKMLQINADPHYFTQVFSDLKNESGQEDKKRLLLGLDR

PPARγ = target: T2, PPARγ (Homo sapiens, UniProt P37231); assay: TR-FRET competitive binding assay PPARγ; conditions: concentration-response
T2 sequence (P37231 235-505 limits assumed): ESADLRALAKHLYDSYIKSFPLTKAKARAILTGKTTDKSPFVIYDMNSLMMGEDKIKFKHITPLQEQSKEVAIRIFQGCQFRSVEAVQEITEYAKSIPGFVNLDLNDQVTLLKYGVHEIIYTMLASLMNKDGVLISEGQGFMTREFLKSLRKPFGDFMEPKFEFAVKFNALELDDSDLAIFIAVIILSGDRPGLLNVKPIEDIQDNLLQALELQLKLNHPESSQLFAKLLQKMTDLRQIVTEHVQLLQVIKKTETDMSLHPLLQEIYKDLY

PPARα = target: T3, PPARα (Homo sapiens, UniProt Q07869); assay: TR-FRET competitive binding assay PPARα; conditions: for effect on PPARα binding: 4 µM, compared to positive control 19; for replacement of labeled PPARα ligand binding: up to 20 µM
T3 sequence (Q07869 200-468 limits assumed): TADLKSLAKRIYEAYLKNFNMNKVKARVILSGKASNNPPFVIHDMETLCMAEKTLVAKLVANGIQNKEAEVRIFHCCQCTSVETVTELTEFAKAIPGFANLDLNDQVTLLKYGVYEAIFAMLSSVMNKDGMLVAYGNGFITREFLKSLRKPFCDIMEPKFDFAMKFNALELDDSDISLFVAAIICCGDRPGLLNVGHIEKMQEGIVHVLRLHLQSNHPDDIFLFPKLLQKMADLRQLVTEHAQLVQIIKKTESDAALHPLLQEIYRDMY

CDK5/p25 = CDK5/p25 (Homo sapiens, UniProt Q00535); assay: KinaseProfiler kinase assay CDK5/p25; format: biochemical; conditions: up to 20 µM, Km ATP
Sequence of CDK5/p25 (Q00535 whole entry): as the sequence (Q00535 whole entry) above
Sequence of CDK5/p25 (Q15078 99-307 partner limits assumed): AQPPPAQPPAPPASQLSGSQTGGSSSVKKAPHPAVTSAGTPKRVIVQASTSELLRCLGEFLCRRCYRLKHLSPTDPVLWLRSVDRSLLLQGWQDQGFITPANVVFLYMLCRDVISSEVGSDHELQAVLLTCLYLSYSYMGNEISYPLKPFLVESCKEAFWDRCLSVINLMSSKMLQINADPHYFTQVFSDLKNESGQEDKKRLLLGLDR

LXRβ = target: T4, LXRβ (Homo sapiens, UniProt P55055); assay: TR-FRET LXRβ coactivator assay; format: biochemical; conditions: 4 µM, compared to positive control 20
T4 sequence (P55055 1-460): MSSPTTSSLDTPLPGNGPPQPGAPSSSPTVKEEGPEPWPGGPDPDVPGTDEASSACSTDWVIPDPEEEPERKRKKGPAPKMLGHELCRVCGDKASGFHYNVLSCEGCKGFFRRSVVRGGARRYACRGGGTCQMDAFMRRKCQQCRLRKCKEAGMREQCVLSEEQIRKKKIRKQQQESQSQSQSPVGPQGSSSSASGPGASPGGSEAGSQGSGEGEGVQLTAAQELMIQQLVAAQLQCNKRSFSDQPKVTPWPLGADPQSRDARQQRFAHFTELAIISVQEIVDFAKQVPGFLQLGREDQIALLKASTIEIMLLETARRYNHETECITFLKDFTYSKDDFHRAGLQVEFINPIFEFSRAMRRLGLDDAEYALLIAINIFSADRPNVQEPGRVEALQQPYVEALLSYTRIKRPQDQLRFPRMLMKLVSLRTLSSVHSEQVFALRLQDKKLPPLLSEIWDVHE

LXRα = target: T5, LXRα (Homo sapiens, UniProt Q13133); assay: TR-FRET LXRα coactivator assay; format: biochemical; conditions: 4 µM, compared to positive control 20
T5 sequence (Q13133 1-447): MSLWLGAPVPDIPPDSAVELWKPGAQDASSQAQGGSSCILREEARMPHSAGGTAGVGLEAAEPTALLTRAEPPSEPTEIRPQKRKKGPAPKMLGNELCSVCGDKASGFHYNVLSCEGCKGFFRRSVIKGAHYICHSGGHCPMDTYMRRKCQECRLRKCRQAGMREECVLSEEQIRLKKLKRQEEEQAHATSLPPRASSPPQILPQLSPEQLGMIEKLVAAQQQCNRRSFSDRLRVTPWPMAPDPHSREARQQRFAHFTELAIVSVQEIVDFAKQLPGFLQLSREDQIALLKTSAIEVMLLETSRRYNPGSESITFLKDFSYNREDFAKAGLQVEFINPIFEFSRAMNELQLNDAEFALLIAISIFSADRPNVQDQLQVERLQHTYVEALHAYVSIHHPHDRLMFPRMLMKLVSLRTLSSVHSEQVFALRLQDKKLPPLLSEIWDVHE

GR = target: T6, GR (Homo sapiens, UniProt P04150); assay: TR-FRET competitive binding assay GR; conditions: 4 µM, compared to dexamethasone
T6 sequence (P04150 1-777): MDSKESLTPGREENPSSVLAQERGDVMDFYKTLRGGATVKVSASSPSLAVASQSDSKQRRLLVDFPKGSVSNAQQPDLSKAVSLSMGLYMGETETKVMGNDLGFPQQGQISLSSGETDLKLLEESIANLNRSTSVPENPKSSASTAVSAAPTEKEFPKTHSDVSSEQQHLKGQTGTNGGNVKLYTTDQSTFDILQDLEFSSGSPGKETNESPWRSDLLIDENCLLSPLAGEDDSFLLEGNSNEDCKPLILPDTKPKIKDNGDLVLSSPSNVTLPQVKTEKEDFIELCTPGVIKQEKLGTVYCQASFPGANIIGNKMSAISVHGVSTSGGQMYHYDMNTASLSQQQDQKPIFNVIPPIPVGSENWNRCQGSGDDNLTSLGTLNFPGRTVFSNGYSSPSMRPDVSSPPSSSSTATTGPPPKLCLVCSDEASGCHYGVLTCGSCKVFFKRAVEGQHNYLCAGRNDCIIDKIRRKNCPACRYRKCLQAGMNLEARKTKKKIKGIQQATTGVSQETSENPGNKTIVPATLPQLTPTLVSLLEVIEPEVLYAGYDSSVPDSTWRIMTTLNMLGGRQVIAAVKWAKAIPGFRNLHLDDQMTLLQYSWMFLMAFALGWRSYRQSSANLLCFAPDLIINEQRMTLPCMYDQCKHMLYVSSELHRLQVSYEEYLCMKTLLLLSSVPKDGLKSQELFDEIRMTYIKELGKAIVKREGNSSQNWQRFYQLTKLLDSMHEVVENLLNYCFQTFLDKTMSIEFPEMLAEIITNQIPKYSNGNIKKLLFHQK

[2] = tested on: STZ-induced diabetic C57BL/6J mice; assay: STZ-induced diabetes mouse model; format: in vivo; conditions: oral 20 mg/kg for 5 days, male C57BL/6J
PPARδ [3] = target: T7, PPARδ (Homo sapiens, UniProt Q03181); assay: TR-FRET PPARδ coactivator assay; format: biochemical; conditions: compound alone
T7 sequence (Q03181 211-439 limits assumed): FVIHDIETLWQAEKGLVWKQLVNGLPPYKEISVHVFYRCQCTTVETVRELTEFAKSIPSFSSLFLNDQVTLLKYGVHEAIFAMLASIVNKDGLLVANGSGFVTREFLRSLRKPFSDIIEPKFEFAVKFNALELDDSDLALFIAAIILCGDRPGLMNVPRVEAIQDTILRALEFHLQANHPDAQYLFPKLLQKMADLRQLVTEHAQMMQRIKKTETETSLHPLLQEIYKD

hBM-MSCs [4] = assay: Oil Red O staining of lipid droplets in hBM-MSCs; format: cell-based, human; conditions: compared with IDX control, 7th day
hBM-MSCs [5] = assay: adiponectin production during adipogenesis in hBM-MSCs; conditions: compared to IDX control

SMILES | % displacement at 1 µM (hA1AR) (hA1AR) [%] | effect on CDK5/p35 kinase activity (CDK5/p35) | effect on PPARα binding (PPARα) | replacement of labeled PPARα ligand binding (PPARα) [%] | effect on CDK5/p25 kinase activity (CDK5/p25) | effect on LXRβ coactivation (LXRβ) | effect on LXRα coactivation (LXRα) | effect on GR binding (GR) | further results
O[C@@H]1[C@H](O)CS[C@H]1n1cnc2c(NCc3ccccc3Cl)nc(Cl)nc21 [Compound 3c, (2R,3R,4S)-2-(2-Chloro-6-((2-chlorobenzyl)amino)-9H-purin-9-yl)tetrahydrothiophene-3,4-diol] | 13 | – | – | – | – | – | – | – | –
O[C@@H]1[C@H](O)CS[C@H]1n1cnc2c(NCc3cccc(Cl)c3)nc(Cl)nc21 [Compound 3b, (2R,3R,4S)-2-(2-Chloro-6-((3-chlorobenzyl)amino)-9H-purin-9-yl)tetrahydrothiophene-3,4-diol] | 38 | – | – | – | – | – | – | – | % displacement at 1 µM (hA2AAR) (hA2AAR; 1 µM): 18%; PPARδ binding activity (PPARδ [1]): maximal PPARδ binding activity
CNC(=O)[C@H]1O[C@@H](n2cnc3c(NCc4cccc(I)c4)nc(Cl)nc32)[C@H](O)[C@@H]1O [Compound 1b] | – | Neither 1a nor 1b affected CDK activity | no significant effects | ≤ 50 | Neither 1a nor 1b affected CDK activity | no significant effects | no significant effects | no significant effects | PPARγ binding activity (PPARγ): significant competitive binding activity
CNC(=O)[C@H]1O[C@@H](n2cnc3c(NCc4cccc(I)c4)ncnc32)[C@H](O)[C@@H]1O [Compound 1a, N^6-(3-iodobenzyl)adenosine-5′-N-methyluronamide] | – | Neither 1a nor 1b affected CDK activity | no significant effects | ≤ 50 | Neither 1a nor 1b affected CDK activity | no significant effects | no significant effects | no significant effects | serum triglyceride levels [2]: downregulated serum triglyceride levels; serum glucose levels ([2]; 20 mg/kg): tended to decrease serum glucose levels; recruitment of labeled coactivator peptide to PPARδ (PPARδ [3]): no effect on the recruitment of the labeled coactivator peptide; lipid droplets in differentiated adipocytes (ORO staining) (hBM-MSCs [4]): increased the number and size of lipid droplets; adiponectin production during adipogenesis (hBM-MSCs [5]): significantly promoted adiponectin production; also recorded: upregulated adiponectin production during adipogenesis in hBM-MSCs in a concentration-dependent manner
O=C(NC1CC1)[C@H]1S[C@@H](n2cnc3c(NCc4cccc(I)c4)ncnc32)[C@H](O)[C@@H]1O [Compound 2b, (2S,3S,4R,5R)-N-Cyclopropyl-3,4-dihydroxy-5-(6-((3-iodobenzyl)amino)-9H-purin-9-yl)tetrahydrothiophene-2-carboxamide] | – | – | – | – | – | – | – | – | Ki (hA2AAR; read-out: Ki (hA2AAR)): 15.2 ± 2.6 nM
